Tested on: transgenic mice over-expressing one mutated form of the NOTCH 3 gene
Assay: Dementia of vascular origin: transgenic mice over-expressing mutated NOTCH 3 gene (CADASIL model, Example 6)
Type: in vivo, mouse
Set-up: SODt (oxidative stress marker) / Cabalase (oxidative stress marker) / HPT (oxidative stress marker) / MDA (oxidative stress marker): unit not given here
Conditions: 100 μg/kg i.p. twice a week, 16 weeks
Description: This experiment was conducted to evaluate the efficacy of pharmaceutical compositions indistinctly containing one of the peptides GHRP-6, GHRP-2, hexarelin or ghrelin on the central neurofunctional involution process in transgenic mice over-expressing one mutated form of the NOTCH 3 gene in blood vessel smooth muscle cells. These animals develop in terms of months an arteriopathy similar to that of the CASADIL disease, referred to the descriptive memory, and is occurring as one of the main causes of vascular dementia. In these animals, vascular lesions also include retinal-cerebral, cerebral and cochlear vasculopathies. The beta-amiloid material present in the brain and blood vessels, the deposit of osmophilic granular material in brain and meningeal artery walls and their reduced lumen are histopathologically relevant. White-pale zones, microinfarction and hemorrhagic foci zones appear in the brain and its main nervous trunks.
Eighteen- to twenty-months-old male mice were employed when evidenced the symptoms of the disease. The animals were randomly assigned to the following experimental treatment groups: • A—Placebo group receiving the physiological saline solution. • B—Group receiving GHRP-6 at a 100 μg/kg dosage. • C—Group receiving GHRP-2 at a 100 μg/kg dosage. • D—Group receiving Ghrelin at a 100 μg/kg dosage. • E—Group receiving Hexarelin at a 100 μg/kg dosage.
Treatments were applied twice a week during 16 weeks by intraperitoneal route. When treatments concluded, autopsy studies were conducted irrespective of the clinical improvement evidenced in a great number of animals treated. Brain tissue samples including meningeal tissues were collected for biochemical and histopathological determinations. The animals received anesthesia overdosed and subjected to intra-cardiac perfusion with cold physiological saline solution to wash off the blood present in the encephala. The encephala were extracted and one encephalon was frozen in dry-ice and the other was fixed in 4% para-formaldehyde neutral. Samples were cryo-sliced at 10 μm and slices were stained with hematoxylin/eosin, Congo Red, or incubated with an antibody specific for the beta-amiloid protein. Morphometric procedures were carried out by microscopic imaging capture by a camera connected to the microscope, and the images were analyzed with the DIGIPAT software.
Number of fibrillar deposits of beta-amiloid in blood vessels.
Number of sub-cortical infarctions.
Number of sub-cortical hemorrhages.
Brain concentration of myo-inositol as indicator of aging and brain metabolism deterioration (μmol/g of tissue).
Brain oxidative stress markers.

## GHRP-6
brain
  Cabalase (oxidative stress marker): 51.5 ± 16.01
  Cerebral Myo-inositol: 12.36 ± 5.64 μmol/g of tissue
  HPT (oxidative stress marker): 101.7 ± 22.09
  MDA (oxidative stress marker): 0.23 ± 0.05
  SODt (oxidative stress marker): 12327.31 ± 55.1
Cerebral tissues
  No. of blood vessels positive to Congo Red: 16.31 ± 5.33
  No. of blood vessels positive to Nissl: 14.22 ± 8.15
  No. of hemorrhagic foci.: 19.05 ± 5.14
  No. of subcortical infarctions.: 26.79 ± 4.19
